Reference: publication PMC7849011, “Defining the Antimalarial Activity of Cipargamin in Healthy Volunteers Experimentally Infected with Blood-Stage Plasmodium falciparum” (Antimicrobial Agents and Chemotherapy, 2021)
Where “and” joins values, the source holds several entries; their conditions need not be identical. Identical values can stand only once. Entries after “also recorded” stand apart in the source; their conditions may differ. Like-named read-outs stand apart in the source and are kept apart here.

Tests used:
[1] = Safety assessment (adverse events, clinical laboratory, ECG); format: in vivo, human
Procedure: Safety assessments were performed throughout the study from screening and included adverse event reporting, physical examination, vital signs, clinical laboratory evaluation (hematology, biochemistry, and urinalysis), electrocardiography (ECG), and malaria clinical score recording. The malaria clinical score served as a clinical indication of the severity of the induced malaria infection; 14 signs and symptoms commonly associated with malaria were graded using a 3-point scale (0 = absent, 1 = mild, 2 = moderate, and 3 = severe), and the values were summed in order to generate an overall score (with a maximum possible score of 42). The severity of AEs was graded in accordance with the Common Terminology Criteria for Adverse Events, version 4.03 (https://evs.nci.nih.gov/ftp1/CTCAE/CTCAE_4.03/CTCAE_4.03_2010-06-14_QuickReference_5x7.pdf).

[2] = tested on: P. falciparum female gametocytes; assay: Gametocytemia by pfs25 qRT-PCR; format: in vivo, Plasmodium falciparum
Procedure: A single oral dose of 960 mg piperaquine (PCI Pharma Services, United Kingdom) was administered to subjects in response to parasite regrowth. The purpose of piperaquine treatment was to clear asexual parasites without clearing any gametocytes that may be present. This would allow the gametocytocidal activity of a second dose of cipargamin to be investigated, as well as the transmission of gametocytes to mosquitoes. Gametocytemia was monitored using quantitative reverse transcriptase PCR (qRT-PCR) targeting pfs25 mRNA, a transcript preferentially expressed in mature female gametocytes ([26]). Transcripts per milliliter of blood were converted to female gametocytes per milliliter of blood using a standard curve ([29]). All participants were to receive compulsory rescue treatment with artemether-lumefantrine ([…]; Novartis Pharmaceuticals Pty. Ltd., Macquarie Park, Australia), as well as a single 45-mg dose of primaquine ([…] Group, Sydney, Australia) to clear gametocytes, 21 days after cipargamin dosing or earlier if a second round of parasite regrowth occurred following piperaquine treatment. To monitor total parasitemia, blood samples were collected for 18S rRNA qPCR before inoculation, on day 3, twice daily on days 4 to 6, pretreatment on day 7, and 4, 8, 12, 16, 24, 30, and 36 h posttreatment, twice daily from day 9 to day 11, and every 1 to 3 days until day 35. Blood samples for gametocytemia measurements were collected on day 11, every 1 to 3 days between day 15 and day 29, and on day 35. […] Analyses were performed in R version 3.3.0. The PRR and parasite clearance half-life were estimated using the slope of the optimal fit for the log-linear relationship of the parasitemia decay as described previously ([27]).

[3] = tested on: P. falciparum gametocytes; assay: Direct membrane feeding assay (DMFA), transmission to Anopheles stephensi mosquitoes; format: in vivo, Plasmodium falciparum; settings: blood collected 20 days after cipargamin dosing
Procedure: The transmission of parasites from subjects to female Anopheles stephensi mosquitoes was measured using a direct membrane feeding assay (DMFA) as previously described ([23]). Briefly, ∼100 mosquitoes (3 to 7 days old) were allowed to feed on a water-jacketed membrane feeder filled with venous blood collected 20 days after cipargamin dosing into lithium heparin anticoagulant tubes. Seven to 9 days after blood feeding, mosquitoes were dissected to detect oocysts in midgut preparations using qPCR targeting the gene encoding 18S rRNA.

[4] = design: method as in PMID 25114127; settings: cited from earlier work
[5] = cited from earlier work
[6] = 25 P. falciparum patients, single doses of 10, 15, 20 or 30 mg
[7] = P. falciparum patient, day 6, not considered related
[8] = P. vivax patient, day 9, 30 mg per day for 3 days

Compound: C[C@H]1Cc2c([nH]c3cc(Cl)c(F)cc23)[C@@]2(N1)C(=O)Nc1ccc(Cl)cc12 [cipargamin]
- Abdominal discomfort ([1]; 10 mg, N=8): 4 (50.0) n (%)
- Alanine aminotransferase increased ([1]; 10 mg, N=8): 2 (25.0) n (%)
- Arthralgia ([1]; 10 mg, N=8): 2 (25.0) n (%)
- Aspartate aminotransferase increased ([1]; 10 mg, N=8): 1 (12.5) n (%)
- Cardiac disorders (system organ class) ([1]; 10 mg, N=8): 1 (12.5) n (%)
- Chills ([1]; 10 mg, N=8): 3 (37.5) n (%)
- Decreased appetite ([1]; 10 mg, N=8): 3 (37.5) n (%)
- Diarrhoea ([1]; 10 mg, N=8): 2 (25.0) n (%)
- Drug-induced liver injury ([1]; 10 mg, N=8): 1 (12.5) n (%)
- Eye disorders (system organ class) ([1]; 10 mg, N=8): 1 (12.5) n (%)
- Gamma-glutamyltransferase increased ([1]; 10 mg, N=8): 2 (25.0) n (%)
- Gastrointestinal disorders (system organ class) ([1]; 10 mg, N=8): 5 (62.5) n (%)
- General disorders and administration site conditions (system organ class) ([1]; 10 mg, N=8): 6 (75.0) n (%)
- Haemoptysis ([1]; 10 mg, N=8): 1 (12.5) n (%)
- Head discomfort ([1]; 10 mg, N=8): 1 (12.5) n (%)
- Headache ([1]; 10 mg, N=8): 5 (62.5) n (%) and 5 n (%)
- Hepatobiliary disorders (system organ class) ([1]; 10 mg, N=8): 1 (12.5) n (%)
- Hyperhidrosis ([1]; 10 mg, N=8): 3 (37.5) n (%)
- Investigations (system organ class) ([1]; 10 mg, N=8): 3 (37.5) n (%)
- Lethargy ([1]; 10 mg, N=8): 4 (50.0) n (%)
- Liver function test abnormal ([1]; 10 mg, N=8): 1 (12.5) n (%)
- Liver tenderness ([1]; 10 mg, N=8): 1 (12.5) n (%)
- Malaise ([1]; 10 mg, N=8): 4 (50.0) n (%)
- Metabolism and nutrition disorders (system organ class) ([1]; 10 mg, N=8): 3 (37.5) n (%)
- Musculoskeletal and connective tissue disorders (system organ class) ([1]; 10 mg, N=8): 5 (62.5) n (%)
- Myalgia ([1]; 10 mg, N=8): 5 (62.5) n (%) and 5 n (%)
- Nausea ([1]; 10 mg, N=8): 1 (12.5) n (%)
- Neck pain ([1]; 10 mg, N=8): 1 (12.5) n (%)
- Nervous system disorders (system organ class) ([1]; 10 mg, N=8): 6 (75.0) n (%)
- Non-cardiac chest pain ([1]; 10 mg, N=8): 1 (12.5) n (%)
- Photophobia ([1]; 10 mg, N=8): 1 (12.5) n (%)
- Pyrexia ([1]; 10 mg, N=8): 6 (75.0) n (%) and 6 n (%)
- Rales ([1]; 10 mg, N=8): 1 (12.5) n (%)
- Rash ([1]; 10 mg, N=8): 1 (12.5) n (%)
- Respiratory, thoracic and mediastinal disorders (system organ class) ([1]; 10 mg, N=8): 3 (37.5) n (%)
- Rhinorrhoea ([1]; 10 mg, N=8): 1 (12.5) n (%)
- Skin and subcutaneous tissue disorders (system organ class) ([1]; 10 mg, N=8): 4 (50.0) n (%)
- Subjects with at least one adverse event ([1]; 10 mg, N=8): 8 (100) n (%)
- Tachycardia ([1]; 10 mg, N=8): 1 (12.5) n (%)
- Urticaria ([1]; 10 mg, N=8): 1 (12.5) n (%)
- AEs leading to discontinuation: No. (%) of subjects ([1]; 10 mg, 8 subjects): 0 (0)
- AEs leading to discontinuation: No. of AEs ([1]; 10 mg, 8 subjects): 0
- AEs mild in severity, of all AEs ([1]; 10 mg, 8 subjects): 68/89
- Any AEs, cipargamin related: No. (%) of subjects ([1]; 10 mg, 8 subjects): 4 (50.0)
- Any AEs, cipargamin related: No. of AEs ([1]; 10 mg, 8 subjects): 10
- Any AEs: No. (%) of subjects with at least 1 AE ([1]; 10 mg, 8 subjects): 8 (100)
- Any AEs: No. of AEs ([1]; 10 mg, 8 subjects): 89
- Moderate AEs (grade 2), cipargamin related: No. (%) of subjects ([1]; 10 mg, 8 subjects): 2 (25.0)
- Moderate AEs (grade 2), cipargamin related: No. of AEs ([1]; 10 mg, 8 subjects): 2
- Moderate AEs (grade 2): No. (%) of subjects ([1]; 10 mg, 8 subjects): 7 (87.5)
- Moderate AEs (grade 2): No. of AEs ([1]; 10 mg, 8 subjects): 18
- SAEs: No. (%) of subjects ([1]; 10 mg, 8 subjects): 3 (37.5)
- SAEs: No. of AEs ([1]; 10 mg, 8 subjects): 3
- Severe AEs (grade 3), cipargamin related: No. (%) of subjects ([1]; 10 mg, 8 subjects): 2 (25.0)
- Severe AEs (grade 3), cipargamin related: No. of AEs ([1]; 10 mg, 8 subjects): 2
- Severe AEs (grade 3): No. (%) of subjects ([1]; 10 mg, 8 subjects): 2 (25.0)
- Severe AEs (grade 3): No. of AEs ([1]; 10 mg, 8 subjects): 3
- hematology, urinalysis, or electrocardiogram (ECG) parameters ([1]; 10 mg, 8 subjects): no clinically significant abnormalities
- maximum ALT, times ULN ([1]; subject 1): 5.2 × ULN
- maximum AST ([1]; subject 1): 88 U/liter
- maximum AST, times ULN ([1]; subject 1): 2.2 × ULN
- maximum ALT ([1]; subject 1, onset 8 days after dosing): 208 U/liter
- ALT ([1]; subject 3, 8 days after dosing): 187 U/liter
- ALT, times ULN ([1]; subject 3, 8 days after dosing): 4.6 × ULN
- AST ([1]; subject 3, 8 days after dosing): 106 U/liter
- AST, times ULN ([1]; subject 3, 8 days after dosing): 2.6 × ULN
- GGT ([1]; subject 3, 8 days after dosing): 215 U/liter
- GGT, times ULN ([1]; subject 3, 8 days after dosing): 4.3 × ULN
- bilirubin ([1]; subject 3, 8 days after dosing): 74 µmol/L
- bilirubin, times ULN ([1]; subject 3, 8 days after dosing): 3.7 × ULN
- conjugated bilirubin ([1]; subject 3, 8 days after dosing): 22 µmol/L
- conjugated bilirubin, times ULN ([1]; subject 3, 8 days after dosing): 3.1 × ULN
- peak ALT, times ULN ([1]; subject 8): 24.1 × ULN
- peak AST ([1]; subject 8): 443 U/liter
- peak AST, times ULN ([1]; subject 8): 11 × ULN
- peak GGT ([1]; subject 8): 159 U/liter
- peak GGT, times ULN ([1]; subject 8): 3.1 × ULN
- peak ALT ([1]; subject 8, onset 11 days after dosing): 964 U/liter
- gametocyte development after treatment ([2]; 10 mg cipargamin, followed by piperaquine): Low gametocyte densities were detected in all subjects; also recorded: detected in all 8 subjects; also recorded: not sufficient to prevent gametocyte development
- gametocytemia at time of DMFA, geometric mean ([2]; 20 days after cipargamin dosing): 439 gametocytes/ml
- peak gametocytemia, geometric mean ([2]; after 10 mg cipargamin then 960 mg piperaquine, 8 subjects): 976 female gametocytes/ml
- time of peak gametocytemia after cipargamin dosing ([2]; all subjects, 24 days postinoculation): approximately 17 days
- transmission to mosquitoes (oocysts in midgut by qPCR) [3]: did not transmit to mosquitoes; also recorded: could not be detected; also recorded: not observed
- AUC0–∞ ([4]; 10 mg, healthy subjects, first-in-human study): 1860 ng·h/mL
- LFT abnormalities ([4]; 72 healthy subjects, single doses up to 300 mg or up to 150 mg daily for 3 days): only one subject displayed mild LFT abnormalities
- tolerability in humans ([4]; single dose up to 300 mg or up to 150 mg daily for 3 days): tolerated
- AUC0–∞ ([5]; 10 mg, patients with naturally acquired malaria): 6400 ng·h/mL
- LFT abnormalities ([5]; 30 mg per day for 3 days, 11 P. falciparum and 10 P. vivax patients): three subjects displayed LFT abnormalities
- patients with increased ALT [5, 6]: only one patient displayed increased ALT
- patients with increased blood alkaline phosphatase [5, 6]: 40%
- subjects with hyperbilirubinemia [5, 6]: 20%
- increased ALT [5, 7]: 192 U/liter
- increased AST [5, 7]: 121 U/liter
- peak ALT [5, 8]: 241 U/liter
- peak AST [5, 8]: 106 U/liter
- peak ALT ([5]; other P. vivax patient, day 6): 78 U/liter
- peak AST ([5]; other P. vivax patient, day 6): 63 U/liter
- patients with asymptomatic transient ALT elevations (>3 × ULN) ([5]; single 75-mg dose, cohort of 11 P. falciparum patients, ref unpublished, NCT01860989): four patients had asymptomatic transient ALT elevations
